Measured values from patent publication US9586961B2, “Homopiperazine derivatives as protein tyrosine kinase inhibitors and pharmaceutical use thereof” (LEO PHARMA A/S, priority 2010, dated 2017).

Assays:
Format in all cases: biochemical
[1] = molecular target: T1, JAK1 (Homo sapiens, UniProt P23458); experiment: JAK1 kinase assay (HTRF, inhibition of phosphorylation of a synthetic peptide); details: catalytic domain aa 850-1154, GST-tag; 7 μM ATP (Km); read-out: JAK1 kinase inhibitory activity (EC50)
T1 construct: JAK1 (aa 850-1154) and TYK2 (aa 871-1187) are expressed with an N-terminally fused GST-tag; GST (N); purchased Carna Biosciences, Inc; host or cells: baculovirus expression system
T1 sequence (P23458 850-1154): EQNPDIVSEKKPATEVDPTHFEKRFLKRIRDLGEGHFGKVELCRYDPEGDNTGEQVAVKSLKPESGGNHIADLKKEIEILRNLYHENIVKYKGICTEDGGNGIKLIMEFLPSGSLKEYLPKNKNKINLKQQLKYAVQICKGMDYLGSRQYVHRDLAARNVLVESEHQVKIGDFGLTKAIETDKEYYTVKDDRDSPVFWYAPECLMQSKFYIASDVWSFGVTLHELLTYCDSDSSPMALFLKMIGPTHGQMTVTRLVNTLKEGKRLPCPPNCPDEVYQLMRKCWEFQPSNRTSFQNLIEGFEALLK
Method in brief: (§1)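 Baculovirus-expressed human catalytic domains (GST-JAK1, GST-TYK2, His-JAK2, His-JAK3) phosphorylated 1 μM TK substrate-biotin at ATP Km (JAK1 7 μM, JAK2 4 μM, JAK3 2 μM, TYK2 13 μM) in pH 7.0 Hepes for 20-30 min at RT, 0.75% DMSO. EDTA stop, then overnight streptavidin-XL665/cryptate-antibody detection and HTRF read.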

[2] = molecular target: T2, JAK2 (Homo sapiens, UniProt O60674); experiment: JAK2 kinase assay (HTRF, inhibition of phosphorylation of a synthetic peptide); details: catalytic domain, His-tag; 4 μM ATP (Km); read-out: JAK2 kinase inhibitory activity (EC50)
T2 construct: All four purified enzymes contain only the catalytic domain; His (N); purchased Carna Biosciences, Inc; host or cells: baculovirus expression system
T2 sequence (O60674 849-1124 limits assumed): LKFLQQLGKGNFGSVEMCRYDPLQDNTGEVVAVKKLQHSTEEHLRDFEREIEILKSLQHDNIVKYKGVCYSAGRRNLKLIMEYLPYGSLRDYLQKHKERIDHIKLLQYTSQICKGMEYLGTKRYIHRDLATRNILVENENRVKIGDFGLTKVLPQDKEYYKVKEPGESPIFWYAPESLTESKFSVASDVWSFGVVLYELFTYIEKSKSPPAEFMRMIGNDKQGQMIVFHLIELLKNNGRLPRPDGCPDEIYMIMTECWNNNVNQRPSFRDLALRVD
Method in brief: as §1

[3] = molecular target: T3, JAK3 (Homo sapiens, UniProt P52333); experiment: JAK3 kinase assay (HTRF, inhibition of phosphorylation of a synthetic peptide); details: catalytic domain, His-tag; 2 μM ATP (Km); read-out: JAK3 kinase inhibitory activity (EC50)
T3 construct: All four purified enzymes contain only the catalytic domain; His (N); purchased Carna Biosciences, Inc; host or cells: baculovirus expression system
T3 sequence (P52333 822-1111 limits assumed): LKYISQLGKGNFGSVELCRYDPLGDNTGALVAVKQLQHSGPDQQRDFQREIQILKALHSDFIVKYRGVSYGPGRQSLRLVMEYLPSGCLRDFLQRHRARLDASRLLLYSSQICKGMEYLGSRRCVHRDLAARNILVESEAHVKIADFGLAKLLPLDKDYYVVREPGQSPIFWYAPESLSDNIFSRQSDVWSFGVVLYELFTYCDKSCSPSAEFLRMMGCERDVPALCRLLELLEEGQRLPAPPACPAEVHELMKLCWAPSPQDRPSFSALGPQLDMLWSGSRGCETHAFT
Method in brief: as §1

[4] = molecular target: T4, TYK2 (Homo sapiens, UniProt P29597); experiment: TYK2 kinase assay (HTRF, inhibition of phosphorylation of a synthetic peptide); details: catalytic domain aa 871-1187, GST-tag; 13 μM ATP (Km); read-out: TYK2 kinase inhibitory activity (EC50)
T4 construct: JAK1 (aa 850-1154) and TYK2 (aa 871-1187) are expressed with an N-terminally fused GST-tag; GST (N); purchased Carna Biosciences, Inc; host or cells: baculovirus expression system
T4 sequence (P29597 871-1187): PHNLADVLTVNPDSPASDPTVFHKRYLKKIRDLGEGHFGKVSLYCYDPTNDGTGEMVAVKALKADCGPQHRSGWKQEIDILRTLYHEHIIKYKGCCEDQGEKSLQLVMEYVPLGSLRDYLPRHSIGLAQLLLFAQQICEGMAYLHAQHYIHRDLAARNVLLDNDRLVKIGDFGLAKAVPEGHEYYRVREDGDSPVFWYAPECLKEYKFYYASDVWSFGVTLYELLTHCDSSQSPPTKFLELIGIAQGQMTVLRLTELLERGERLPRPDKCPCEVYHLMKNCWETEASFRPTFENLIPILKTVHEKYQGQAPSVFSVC
Protocol: JAK1, JAK2, JAK3 and TYK2 Kinase Assays:
Human baculovirus-expressed JAK1, 2, 3 and TYK2 were purchased from Carna Biosciences, Inc. All four purified enzymes contain only the catalytic domain. JAK1 (aa 850-1154) and TYK2 (aa 871-1187) are expressed with an N-terminally fused GST-tag, and JAK2 and JAK3 with an N-terminally fused His-tag. Inhibition of phosphorylation of a synthetic peptide was measured in an HTRF-based assay using the TK substrate-Biotin from the CisbioHTRFKinEASE TK kit. First, 2 μl of TK solution (TK substrate-biotin in kinase buffer [1× enzymatic buffer from HTRFKinEASE TK kit, 1 mM DTT]) is added to a plate containing 1 μl prediluted compound (final assay concentration DMSO: 0.75%). Then, 5 μl kinase-ATP mix (prepared in kinase buffer) is added to the wells and the plates are incubated at RT for 20-30 min. For all four kinases a concentration of ATP that corresponded to the Km for ATP was used. The final concentrations of buffers, substrate, kinase and ATP were: JAK1: 50 mMHepes buffer pH 7.0, 0.01% BSA, 10 mM MgCl2, 1 mM DTT, 7 μM ATP, 50 nMSEB, 1 μM TK Substrate-Biotin and 5 ng JAK1; JAK2: 50 mM Hepes buffer pH 7.0, 0.01% BSA, 5 mM MgCl2, 1 mM DTT, 4 μM ATP, 1 μM TK Substrate-Biotin and 0.1 ng JAK2; JAK3: 50 mMHepes buffer pH 7.0, 0.01% BSA, 5 mM MgCl2, 1 mM DTT, 2 μM ATP, 1 μM TK Substrate-Biotin and 0.3 ng JAK3; TYK2: 50 mMHepes buffer pH 7.0, 0.01% BSA, 5 mM MgCl2, 1 mM DTT, 13 μM ATP, 50 nMSEB, 1 μM TK Substrate-Biotin and 0.8 ng TYK2. Thereafter, the kinase reaction is stopped by adding 4 μl detection mix (final concentrations: 50 mM Hepes buffer pH 7.0, 0.01% BSA, 0.8 M KF, 20 mM EDTA, 42 nM Streptavidin-XL665 and 1:400 STKAbCryptate) and the plates are incubated overnight in the dark. The HTRF signal is read using an Envision plate reader.

Row | SMILES | EC50 [1] | EC50 [2] | EC50 [3] | EC50 [4]
1 | N#CCOc1ccc(C(=O)N2CCN(c3ncnc4[nH]ccc34)CC3(CC3)C2)cc1 [Example 15, 2-[4-[5-(7H-pyrrolo[2,3-d]pyrimidin-4-yl)-5,8-diazaspiro[2.6]nonane-8-carbonyl]phenoxy]acetonitrile] | 100 to 1000 nM | 100 to 1000 nM | 100 to 1000 nM | > 1000 nM
2 | N#CCOc1cccc(CC(=O)N2CCN(c3ncnc4[nH]ccc34)CC3(CC3)C2)c1 [Example 17, 2-[3-[2-oxo-2-[5-(7H-pyrrolo[2,3-d]pyrimidin-4-yl)-5,8-diazaspiro[2.6]nonan-8-yl]ethyl]phenoxy]acetonitrile] | 100 to 1000 nM | 100 to 1000 nM | 100 to 1000 nM | > 1000 nM
3 | O=C(c1cc2ccccc2s1)N1CCN(c2ncnc3[nH]ccc23)CC2(CC2)C1 [Example 18, benzothiophen-2-yl-[5-(7H-pyrrolo[2,3-d]pyrimidin-4-yl)-5,8-diazaspiro[2.6]nonan-8-yl]methanone] | < 100 nM | 100 to 1000 nM | 100 to 1000 nM | > 1000 nM
4 | N#Cc1csc(C(=O)N2CCN(c3ncnc4[nH]ccc34)CC3(CC3)C2)c1 [Example 19, 5-[5-(7H-pyrrolo[2,3-d]pyrimidin-4-yl)-5,8-diazaspiro[2.6]nonane-8-carbonyl]thiophene-3-carbonitrile] | 100 to 1000 nM | < 100 nM | 100 to 1000 nM | > 1000 nM
5 | O=C(c1cc2c(s1)CCC2)N1CCN(c2ncnc3[nH]ccc23)CC2(CC2)C1 [Example 21, 5,6-dihydro-4H-cyclopenta[b]thiophen-2-yl-[5-(7H-pyrrolo[2,3-d]pyrimidin-4-yl)-5,8-diazaspiro[2.6]nonan-8-yl]methanone] | 100 to 1000 nM | 100 to 1000 nM | 100 to 1000 nM | > 1000 nM
6 | COc1csc(C(=O)N2CCN(c3ncnc4[nH]ccc34)CC3(CC3)C2)c1 [Example 22, (4-methoxy-2-thienyl)-[5-(7H-pyrrolo[2,3-d]pyrimidin-4-yl)-5,8-diazaspiro[2.6]nonan-8-yl]methanone] | < 100 nM | 100 to 1000 nM | 100 to 1000 nM | > 1000 nM
7 | CNS(=O)(=O)c1csc(C(=O)N2CCN(c3ncnc4[nH]ccc34)CC3(CC3)C2)c1C [Example 23, N,4-dimethyl-5-[5-(7H-pyrrolo[2,3-d]pyrimidin-4-yl)-5,8-diazaspiro[2.6]nonane-8-carbonyl]thiophene-3-sulfonamide] | 100 to 1000 nM | < 100 nM | 100 to 1000 nM | > 1000 nM
8 | Cc1c(S(N)(=O)=O)csc1C(=O)N1CCN(c2ncnc3[nH]ccc23)CC2(CC2)C1 [Example 25, 4-methyl-5-[5-(7H-pyrrolo[2,3-d]pyrimidin-4-yl)-5,8-diazaspiro[2.6]nonane-8-carbonyl]thiophene-3-sulfonamide] | 100 to 1000 nM | < 100 nM | 100 to 1000 nM | > 1000 nM
9 | CNS(=O)(=O)c1cc(C(=O)N2CCN(c3ncnc4[nH]ccc34)CC3(CC3)C2)sc1C [Example 26, N,2-dimethyl-5-[5-(7H-pyrrolo[2,3-d]pyrimidin-4-yl)-5,8-diazaspiro[2.6]nonane-8-carbonyl]thiophene-3-sulfonamide] | 100 to 1000 nM | < 100 nM | 100 to 1000 nM | > 1000 nM
10 | NS(=O)(=O)c1csc(C(=O)N2CCN(c3ncnc4[nH]ccc34)CC3(CC3)C2)c1 [Example 27, 5-[5-(7H-pyrrolo[2,3-d]pyrimidin-4-yl)-5,8-diazaspiro[2.6]nonane-8-carbonyl]thiophene-3-sulfonamide] | 100 to 1000 nM | < 100 nM | < 100 nM | > 1000 nM
11 | Cc1cc(C(=O)N2CCN(c3ncnc4[nH]ccc34)CC3(CC3)C2)ccc1S(N)(=O)=O [Example 29, 2-methyl-4-[5-(7H-pyrrolo[2,3-d]pyrimidin-4-yl)-5,8-diazaspiro[2.6]nonane-8-carbonyl]benzenesulfonamide] | 100 to 1000 nM | 100 to 1000 nM | 100 to 1000 nM | > 1000 nM
12 | NS(=O)(=O)c1ccc(C(=O)N2CCN(c3ncnc4[nH]ccc34)CC3(CC3)C2)cc1Cl [Example 32, 2-chloro-4-[5-(7H-pyrrolo[2,3-d]pyrimidin-4-yl)-5,8-diazaspiro[2.6]nonane-8-carbonyl]benzenesulfonamide] | < 100 nM | 100 to 1000 nM | 100 to 1000 nM | > 1000 nM
13 | CN(C)S(=O)(=O)c1ccc(C(=O)N2CCN(c3ncnc4[nH]ccc34)CC3(CC3)C2)cc1 [Example 33, N,N-dimethyl-4-[5-(7H-pyrrolo[2,3-d]pyrimidin-4-yl)-5,8-diazaspiro[2.6]nonane-8-carbonyl]benzenesulfonamide] | 100 to 1000 nM | 100 to 1000 nM | 100 to 1000 nM | > 1000 nM

Results, then the compound that gave them:

Row | EC50 [1] | EC50 [2] | EC50 [3] | EC50 [4] | SMILES
14 | < 100 nM | < 100 nM | 100 to 1000 nM | > 1000 nM | N#CCOc1ccc(CC(=O)N2CCN(c3ncnc4[nH]ccc34)CC3(CC3)C2)cc1 [Example 16, 2-[4-[2-oxo-2-[5-(7H-pyrrolo[2,3-d]pyrimidin-4-yl)-5,8-diazaspiro[2.6]nonan-8-yl]ethyl]phenoxy]acetonitrile]
15 | < 100 nM | < 100 nM | < 100 nM | 100 to 1000 nM | NS(=O)(=O)c1ccc(CC(=O)N2CCN(c3ncnc4[nH]ccc34)CC3(CC3)C2)cc1 [Example 20, 4-[2-oxo-2-[5-(7H-pyrrolo[2,3-d]pyrimidin-4-yl)-5,8-diazaspiro[2.6]nonan-8-yl]ethyl]benzenesulfonamide]
16 | < 100 nM | < 100 nM | < 100 nM | 100 to 1000 nM | Cc1sc(C(=O)N2CCN(c3ncnc4[nH]ccc34)CC3(CC3)C2)cc1S(N)(=O)=O [Example 24, 2-methyl-5-[5-(7H-pyrrolo[2,3-d]pyrimidin-4-yl)-5,8-diazaspiro[2.6]nonane-8-carbonyl]thiophene-3-sulfonamide]
17 | 100 to 1000 nM | < 100 nM | 100 to 1000 nM | > 1000 nM | CNS(=O)(=O)c1csc(C(=O)N2CCN(c3ncnc4[nH]ccc34)CC3(CC3)C2)c1 [Example 28, N-methyl-5-[5-(7H-pyrrolo[2,3-d]pyrimidin-4-yl)-5,8-diazaspiro[2.6]nonane-8-carbonyl]thiophene-3-sulfonamide]
18 | < 100 nM | < 100 nM | 100 to 1000 nM | 100 to 1000 nM | O=C(Cc1cccs1)N1CCN(c2ncnc3[nH]ccc23)CC2(CC2)C1 [Example 30, 1-[5-(7H-pyrrolo[2,3-d]pyrimidin-4-yl)-5,8-diazaspiro[2.6]nonan-8-yl]-2-(2-thienyl)ethanone]
19 | < 100 nM | < 100 nM | < 100 nM | 100 to 1000 nM | NS(=O)(=O)c1ccc(C(=O)N2CCN(c3ncnc4[nH]ccc34)CC3(CC3)C2)cc1 [Example 31, 4-[5-(7H-pyrrolo[2,3-d]pyrimidin-4-yl)-5,8-diazaspiro[2.6]nonane-8-carbonyl]benzenesulfonamide]
